Test systems include PC-3; HL-60; M14; TK-10; SNB-75; Hs-578T; OVCAR-3; OVCAR-8; 786-0; SK-MEL-5; LOX IMVI; UACC-257; T47D; A498; UO-31; COLO 205; DU-145; RPMI-8226; U-251; SR.
Common to all, as to assay: NCI tumour cell line growth inhibition, 48 h

Structures are written as SMILES.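 Tested at 5 concentrations; 48 h exposure; 96-well plates; endpoints linearly interpolated, else capped at highest concentration. Abbreviation: GI50, concentration required for 50% inhibition of growth.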 Activity calls are given as the source filed them. Rule as the data show it: active = GI50 up to about 1.1 µM and inactive = higher.

As for `Cc1ccc(S(=O)ON2CCC(C(=O)O)(c3ccccc3)CC2)cc1` (stereo unspecified), the GI50 with PC-3, in the assay on HL-60, in the assay on M14, in the assay on TK-10, in the assay with SNB-75 and with Hs-578T was > 100 µM (inactive) each time. Also, the GI50 is > 100 µM (inactive) in the assay with OVCAR-3; > 100 µM (inactive) with OVCAR-8; 0.0773 µM (active) in the assay with 786-0; > 100 µM (inactive) in the assay on SK-MEL-5; > 100 µM (inactive) in the assay on LOX IMVI; > 100 µM (inactive) with UACC-257. Also, the GI50 in the assay on T47D, in the assay on A498, in the assay on UO-31, with COLO 205, in the assay on DU-145 and in the assay with RPMI-8226 was > 100 µM (inactive) throughout. The GI50 in the assay on U-251 was > 100 µM (inactive).
On to `COCn1cnc2c(=O)n(-c3ccc(OC)cc3)c(=S)n(-c3ccc(OC)cc3)c21`, for which the GI50 with PC-3, in the assay on HL-60, in the assay on M14, in the assay with TK-10, with SNB-75 and with OVCAR-3 was > 100 µM (inactive) in each case. Also, the GI50 in the assay on OVCAR-8, with 786-0, with SK-MEL-5, in the assay with LOX IMVI, in the assay with UACC-257 and with T47D was > 100 µM (inactive) each time. Besides, the GI50 in the assay on A498, in the assay on UO-31, in the assay on COLO 205, in the assay with DU-145, in the assay with RPMI-8226 and in the assay on U-251 was > 100 µM (inactive) in each case. Further, the GI50 in the assay with SR is > 100 µM (inactive).
As to `CNNC1=NS(=O)(=O)c2cc(C(=O)OC)c(Cl)cc2S1`, the GI50 in the assay on PC-3, with HL-60, in the assay on M14, in the assay on TK-10, in the assay with SNB-75 and in the assay on Hs-578T was > 10 µM (inactive) each time. Besides, the GI50 with OVCAR-3, with OVCAR-8, in the assay with 786-0, in the assay with SK-MEL-5, with LOX IMVI and with UACC-257 was > 10 µM (inactive) in each case. Also, the GI50 is > 10 µM (inactive) with T47D; > 10 µM (inactive) in the assay on A498; 0.001 µM (active) with UO-31; > 10 µM (inactive) with COLO 205; > 10 µM (inactive) in the assay on DU-145; > 10 µM (inactive) in the assay on RPMI-8226. Also, in the assay with U-251, the GI50 was > 10 µM (inactive).
Take `CCCCc1ccc(Nc2cc(=O)n(C)c(=O)[nH]2)cc1`: the GI50 was 91.2 µM (inactive) in the assay on PC-3; > 100 µM (inactive) in the assay on M14; > 100 µM (inactive) in the assay on TK-10; > 100 µM (inactive) in the assay on SNB-75; > 100 µM (inactive) in the assay on Hs-578T; > 100 µM (inactive) with OVCAR-3. Moreover, the GI50 in the assay with OVCAR-8 is 57 µM (inactive); in the assay with 786-0, > 100 µM (inactive); in the assay on SK-MEL-5, > 100 µM (inactive); with LOX IMVI, 39.8 µM (inactive); in the assay with UACC-257, > 100 µM (inactive); in the assay on T47D it was > 100 µM (inactive). The GI50 in the assay with A498 is > 100 µM (inactive); in the assay on UO-31, > 100 µM (inactive); in the assay with COLO 205, > 100 µM (inactive); with RPMI-8226, > 100 µM (inactive); with U-251 it was 54.3 µM (inactive).
For the compound `Nc1nc(-c2ccccc2)c(Cl)c(-c2cc(Cl)ccc2O)n1`, the GI50 in the assay on PC-3 was 36.1 µM (inactive); with HL-60, > 42.9 µM (inactive); in the assay with M14, > 100 µM (inactive); in the assay on TK-10, 15.5 µM (inactive); with SNB-75, 13.7 µM (inactive); in the assay on OVCAR-3, 16.1 µM (inactive). Moreover, the GI50 in the assay on OVCAR-8 was 14 µM (inactive); in the assay on 786-0, 24.4 µM (inactive); with SK-MEL-5 it was 14.2 µM (inactive); with LOX IMVI, 21.2 µM (inactive); with UACC-257, > 100 µM (inactive); in the assay on T47D, 3.15 µM (inactive). The GI50 with A498 was 34.6 µM (inactive); in the assay on UO-31, 16 µM (inactive); with COLO 205, > 100 µM (inactive); in the assay with DU-145 it was 11.1 µM (inactive); with RPMI-8226, > 86.7 µM (inactive); in the assay on U-251 it was 15.2 µM (inactive). Besides, the GI50 in the assay with SR is > 100 µM (inactive).
As to `N=c1sc(N2CCOCC2)nn1CC(=O)c1ccccc1`, the GI50 in the assay with PC-3 is 96.8 µM (inactive); in the assay on HL-60, > 100 µM (inactive); in the assay with M14 it was > 100 µM (inactive); in the assay with TK-10, > 100 µM (inactive); in the assay with SNB-75, > 100 µM (inactive); with Hs-578T, > 100 µM (inactive). Moreover, the GI50 in the assay with OVCAR-3 is 66.5 µM (inactive); with OVCAR-8, > 100 µM (inactive); in the assay on 786-0, > 100 µM (inactive); in the assay on SK-MEL-5, > 100 µM (inactive); in the assay with UACC-257, > 100 µM (inactive); with T47D, 76.4 µM (inactive). The GI50 with UO-31, in the assay on COLO 205, in the assay on DU-145, in the assay on RPMI-8226 and with U-251 was > 100 µM (inactive) throughout.
`COC(CNC(=O)C(C)NC(=O)C(C)NC(=O)c1ccccc1)OC` (stereo unspecified): the GI50 with PC-3, in the assay on M14, with TK-10, in the assay on SNB-75, in the assay on Hs-578T and with OVCAR-8 was > 100 µM (inactive) in each case. Also, the GI50 in the assay with 786-0, in the assay with SK-MEL-5, in the assay on UACC-257, in the assay on T47D, in the assay with COLO 205 and with DU-145 was > 100 µM (inactive) throughout. In addition, the GI50 in the assay on RPMI-8226, in the assay on U-251 and in the assay with SR was > 100 µM (inactive) in each case.
For `CC12CC(OC(=O)[C@]1(C)O)[C@@H]([C@]1(O)CC[C@H]3[C@@H]4C[C@H]5O[C@]56[C@@H](O)C=CC(=O)[C@]6(C)[C@H]4CC[C@@]31C)C2` (stereo partly specified), the GI50 in the assay on PC-3 is 12.1 µM (inactive); with HL-60, < 0.01 µM (active); with M14, 9.02 µM (inactive); in the assay on TK-10 it was 7.36 µM (inactive); in the assay with Hs-578T, 6.71 µM (inactive); in the assay with OVCAR-3, 2.59 µM (inactive). For the same compound, the GI50 with OVCAR-8 is 3.37 µM (inactive); with 786-0 it was 3.04 µM (inactive); in the assay on SK-MEL-5, 0.785 µM (active); in the assay on LOX IMVI it was 4.42 µM (inactive); with UACC-257, 7 µM (inactive); in the assay on T47D, 8.02 µM (inactive). Besides, the GI50 with A498 is 13.8 µM (inactive); with UO-31, 4.32 µM (inactive); with COLO 205, 3.39 µM (inactive); with DU-145 it was 22.2 µM (inactive); in the assay with U-251, 13.8 µM (inactive).
With `Cc1cc(-n2nnc(C(=O)O)c2-c2ccccc2)c2ccc(Cl)cc2n1`, the GI50 in the assay with PC-3, with HL-60, in the assay on M14, in the assay with TK-10, with SNB-75 and in the assay on Hs-578T was > 100 µM (inactive) in each case. For the same compound, the GI50 in the assay on OVCAR-3, in the assay on OVCAR-8, in the assay on 786-0, with SK-MEL-5, in the assay with LOX IMVI and in the assay on UACC-257 was > 100 µM (inactive) in each case. The GI50 with T47D, in the assay with A498, with UO-31, in the assay with COLO 205, with DU-145 and in the assay on U-251 was > 100 µM (inactive) each time.
`Cc1ccsc1/C=N/NC1=NCCN1`: the GI50 in the assay with PC-3, in the assay on M14, in the assay on TK-10, in the assay on SNB-75, with Hs-578T and with OVCAR-3 was > 100 µM (inactive) each time. Besides, the GI50 in the assay on OVCAR-8, in the assay on 786-0, in the assay on SK-MEL-5, in the assay with LOX IMVI, in the assay on UACC-257 and in the assay on T47D was > 100 µM (inactive) throughout. Also, the GI50 with A498, with UO-31, with COLO 205, with DU-145, in the assay on RPMI-8226 and in the assay on U-251 was > 100 µM (inactive) throughout.
`CCC1(C)C=Cc2c(cc(O)c3c(=O)c4ccccc4n(C)c23)O1` (stereo unspecified): the GI50 with PC-3, with M14, in the assay on TK-10, in the assay on SNB-75, in the assay on Hs-578T and in the assay on OVCAR-3 was > 10 µM (inactive) in each case. For the same compound, the GI50 with OVCAR-8, with 786-0, in the assay with SK-MEL-5, in the assay on LOX IMVI, in the assay on UACC-257 and in the assay with T47D was > 10 µM (inactive) in each case. Also, the GI50 with A498, with UO-31, with COLO 205, in the assay with DU-145, with RPMI-8226 and in the assay with U-251 was > 10 µM (inactive) throughout.

Source of the values: ChEMBL document CHEMBL1201862, “PubChem BioAssay data set” (2004).
